Source: PubChem BioAssay AID330 (DTP/NCI, 2004)
Where “and” joins values, the source holds several entries; their conditions need not be identical. Identical values can stand only once. Inconclusive results and toxic doses are left out. How the source made its calls: active means survival T/C of 150% or more; inactive means T/C below 125% in these data.

System: P388 leukemia ip, CD2F1 mice, survival T/C
Assay: NCI In Vivo Anticancer Drug Screen. Data for tumor model P388 Leukemia (intraperitoneal) in CD2F1 (CDF1) mice
Settings: endpoint: median survival time, higher = longer survival
Outline: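 Mice carrying the transplanted tumor received test compound or vehicle. Survival was recorded in each group, and the value is the treated-group measurement divided by that of the vehicle-treated control group.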

[1] = dose: 50.0 mg/kg/injection, schedule: Q01DX009 (ip), vehicle: saline with Tween-80
[2] = dose: 100.0 mg/kg/injection, schedule: Q01DX009 (ip), vehicle: saline with Tween-80
[3] = dose: 50.0 mg/kg/injection, schedule: Q01DX009 (ip), vehicle: Klucel (hydroxypropylcellulose) (HPC)
[4] = dose: 100.0 mg/kg/injection, schedule: Q01DX009 (ip), vehicle: Klucel (hydroxypropylcellulose) (HPC)
[5] = dose: 200.0 mg/kg/injection, schedule: Q01DX009 (ip), vehicle: Klucel (hydroxypropylcellulose) (HPC)
[6] = dose: 60.0 mg/kg/injection, schedule: Q01DX005 (ip), vehicle: saline with Tween-80
[7] = dose: 200.0 mg/kg/injection, schedule: Q01DX009 (ip), vehicle: saline with Tween-80
[8] = dose: 100.0 mg/kg/injection, schedule: Q01DX005 (ip), vehicle: saline
[9] = dose: 50.0 mg/kg/injection, schedule: Q01DX005 (ip), vehicle: Klucel (hydroxypropylcellulose) (HPC)
[10] = dose: 100.0 mg/kg/injection, schedule: Q01DX005 (ip), vehicle: Klucel (hydroxypropylcellulose) (HPC)
[11] = dose: 200.0 mg/kg/injection, schedule: Q01DX005 (ip), vehicle: Klucel (hydroxypropylcellulose) (HPC)

Measured: T/C

C=C(C)c1nc2c(=O)nc(N)nc-2n(O)c1C
inactive: dose: 37.5 mg/kg/injection, schedule: Q01DX009 (ip), vehicle: saline with Tween-80 99 % of control | dose: 150.0 mg/kg/injection, schedule: Q01DX009 (ip), vehicle: saline with Tween-80 108 % of control

S=C=[N][Sn]([N]=C=S)([c]1ccccc1)[c]1ccccc1.c1ccc2nc(-c3ccc4ccccc4n3)ccc2c1
inactive: dose: 1.87 mg/kg/injection, schedule: Q01DX005 (ip), vehicle: Klucel (hydroxypropylcellulose) (HPC) 97 % of control | dose: 3.75 mg/kg/injection, schedule: Q01DX005 (ip), vehicle: Klucel (hydroxypropylcellulose) (HPC) 109 % of control and 110 % of control

c1ccc2c(c1)[nH]c1nc3ccncc3nc12
inactive: [1] 90 % of control | [2] 90 % of control

Cc1c(C)[n+](=O)c2ccc(/C=[N+](/[O-])CCO)cc2n1[O-]
inactive: [3] 99 % of control | [4] 99 % of control | [5] 107 % of control

ClCCCSSCCCCl
inactive: dose: 30.0 mg/kg/injection, schedule: Q01DX005 (ip), vehicle: saline with Tween-80 107 % of control | [6] 110 % of control

Cc1cc(NC(=S)SCc2ccc3c(c2)OCO3)ccc1Br
inactive: dose: 25.0 mg/kg/injection, schedule: Q01DX009 (ip), vehicle: Klucel (hydroxypropylcellulose) (HPC) 102 % of control and 107 % of control | dose: 25.0 mg/kg/injection, schedule: Q01DX009 (ip), vehicle: saline with Tween-80 96 % of control | [3] 107 % of control and 115 % of control and 116 % of control | [1] 91 % of control | dose: 50.0 mg/kg/injection, schedule: Q01DX009 (ip), vehicle: suspension in saline 93 % of control | [4] 107 % of control and 115 % of control and 118 % of control | [2] 100 % of control | dose: 100.0 mg/kg/injection, schedule: Q01DX009 (ip), vehicle: suspension in saline 104 % of control | [5] 107 % of control | [7] 100 % of control | dose: 200.0 mg/kg/injection, schedule: Q01DX009 (ip), vehicle: suspension in saline 93 % of control

CN1c2ccccc2C2=C(C(=O)CCS2)S1(=O)=O
inactive: dose: 50.0 mg/kg/injection, schedule: Q01DX005 (ip), vehicle: saline 109 % of control | [8] 100 % of control | dose: 200.0 mg/kg/injection, schedule: Q01DX005 (ip), vehicle: saline 101 % of control

CNC1=C(C(=O)c2ccccc2)CCC1
inactive: dose: 6.25 mg/kg/injection, schedule: Q01DX009 (ip), vehicle: saline 104 % of control | dose: 12.5 mg/kg/injection, schedule: Q01DX009 (ip), vehicle: saline 104 % of control | dose: 25.0 mg/kg/injection, schedule: Q01DX009 (ip), vehicle: saline 101 % of control | dose: 50.0 mg/kg/injection, schedule: Q01DX009 (ip), vehicle: saline 101 % of control | dose: 100.0 mg/kg/injection, schedule: Q01DX009 (ip), vehicle: saline 104 % of control and 87 % of control and 95 % of control | dose: 200.0 mg/kg/injection, schedule: Q01DX009 (ip), vehicle: saline 124 % of control and 90 % of control and 95 % of control

Clc1ccc(N=NN2CN3CN(C2)CN(N=Nc2ccc(Cl)cc2)C3)cc1
inactive: dose: 100.0 mg/kg/injection, schedule: Q04DX002 (ip), vehicle: Klucel (hydroxypropylcellulose) (HPC) 94 % of control | dose: 200.0 mg/kg/injection, schedule: Q04DX002 (ip), vehicle: Klucel (hydroxypropylcellulose) (HPC) 99 % of control | dose: 400.0 mg/kg/injection, schedule: Q04DX002 (ip), vehicle: Klucel (hydroxypropylcellulose) (HPC) 91 % of control

CSCCC(NC(=O)C(Cc1c[nH]c2ccccc12)NC(=O)CCNC(=O)OC(C)(C)C)C(=O)NC(CC(=O)O)C(=O)NC(Cc1ccccc1)C(N)=O (stereo unspecified)
inactive: [9] 98 % of control | [10] 100 % of control | [11] 97 % of control

CC1(C)OC2OC(C3COC(=O)O3)C(O)C2O1 (stereo unspecified)
inactive: [9] 95 % of control | [10] 98 % of control | [11] 101 % of control

CCc1c(C#N)c(N)c2c(N)c(C(=O)c3ccccc3)sc2c1C
inactive: [9] 89 % of control | [10] 101 % of control | [11] 95 % of control

COc1cc(CCN(C)C)c(C2C(=O)c3ccc4c(c3C2=O)OCO4)cc1OC (stereo unspecified)
inactive: dose: 0.15 mg/kg/injection, schedule: Q01DX005 (ip), vehicle: Klucel (hydroxypropylcellulose) (HPC) 103 % of control | dose: 0.3 mg/kg/injection, schedule: Q01DX005 (ip), vehicle: Klucel (hydroxypropylcellulose) (HPC) 104 % of control | dose: 0.6 mg/kg/injection, schedule: Q01DX005 (ip), vehicle: Klucel (hydroxypropylcellulose) (HPC) 100 % of control | dose: 1.2 mg/kg/injection, schedule: Q01DX005 (ip), vehicle: Klucel (hydroxypropylcellulose) (HPC) 99 % of control

O=S1(=O)c2cccc(c2)NC(=S)/C([n+]2ccccc2)=C(/[O-])c2ccc(cc2)CC2CCCCN21 (stereo unspecified)
inactive: [9] 94 % of control | [10] 87 % of control

CCCCCC(CN1CCOCC1)C(=O)/C=C/c1ccccc1 (stereo unspecified)
inactive: [1] 102 % of control | [2] 102 % of control | [7] 101 % of control

C[CH2][Sn]([CH2]C)([CH2]CC(=O)OC)[CH2]CC(=O)OC
inactive: dose: 12.5 mg/kg/injection, schedule: Q01DX005 (ip), vehicle: saline 113 % of control | dose: 25.0 mg/kg/injection, schedule: Q01DX005 (ip), vehicle: saline 120 % of control | [8] 119 % of control

C=CC(=O)NCNC(=O)CCBr
active: [1] 186 % of control | dose: 100.0 mg/kg/injection, schedule: Q04DX003 (ip), vehicle: saline with Tween-80 150 % of control | dose: 200.0 mg/kg/injection, schedule: Q04DX003 (ip), vehicle: saline with Tween-80 159 % of control and 190 % of control | dose: 300.0 mg/kg/injection, schedule: Q04DX003 (ip), vehicle: saline with Tween-80 172 % of control
inactive: dose: 25.0 mg/kg/injection, schedule: Q04DX003 (ip), vehicle: saline with Tween-80 109 % of control

N#C/C(=C/c1ccc(Cl)cc1)c1ccc(Cl)cc1
inactive: [3] 102 % of control | [4] 110 % of control | [5] 102 % of control

CC(C)CC(=O)OCC1=CCN2CC[C@@H](O)[C@@H]12
inactive: dose: 15.0 mg/kg/injection, schedule: Q01DX009 (ip), vehicle: saline + alcohol 105 % of control | dose: 30.0 mg/kg/injection, schedule: Q01DX009 (ip), vehicle: saline + alcohol 109 % of control | dose: 60.0 mg/kg/injection, schedule: Q01DX009 (ip), vehicle: saline + alcohol 105 % of control | dose: 120.0 mg/kg/injection, schedule: Q01DX009 (ip), vehicle: saline + alcohol 108 % of control | dose: 240.0 mg/kg/injection, schedule: Q01DX009 (ip), vehicle: saline + alcohol 108 % of control | dose: 480.0 mg/kg/injection, schedule: Q01DX009 (ip), vehicle: saline + alcohol 114 % of control

CSc1nc(NC2OC(CO)C(O)C(O)C2O)c(C=O)c(=O)[nH]1 (stereo unspecified)
inactive: [6] 92 % of control | dose: 120.0 mg/kg/injection, schedule: Q01DX005 (ip), vehicle: saline with Tween-80 95 % of control | dose: 240.0 mg/kg/injection, schedule: Q01DX005 (ip), vehicle: saline with Tween-80 87 % of control

Cc1ccc(C(=O)CC(=O)Nc2cc([N+](=O)[O-])ccc2OCCOc2ccc(C(C)(C)CC(C)(C)C)cc2)cc1
inactive: dose: 18.75 mg/kg/injection, schedule: Q04DX003 (ip), vehicle: saline sonified 109 % of control | dose: 37.5 mg/kg/injection, schedule: Q04DX003 (ip), vehicle: saline sonified 90 % of control | dose: 75.0 mg/kg/injection, schedule: Q04DX003 (ip), vehicle: saline sonified 109 % of control

CN(Cc1nc(-c2ccccc2)no1)c1nc(-c2ccccc2)no1
inactive: dose: 100.0 mg/kg/injection, schedule: Q01DX001 (ip), vehicle: Klucel (hydroxypropylcellulose) (HPC) 97 % of control | dose: 200.0 mg/kg/injection, schedule: Q01DX001 (ip), vehicle: Klucel (hydroxypropylcellulose) (HPC) 109 % of control | dose: 400.0 mg/kg/injection, schedule: Q01DX001 (ip), vehicle: Klucel (hydroxypropylcellulose) (HPC) 95 % of control

C#CC(C)C(C(C)=O)C(=O)c1ccccc1.[C-]#[O+].[C-]#[O+].[C-]#[O+].[C-]#[O+].[C-]#[O+].[C-]#[O+].[Co].[Co] (stereo unspecified)
inactive: dose: 12.5 mg/kg/injection, schedule: Q01DX005 (ip), vehicle: Klucel (hydroxypropylcellulose) (HPC) 108 % of control | dose: 25.0 mg/kg/injection, schedule: Q01DX005 (ip), vehicle: Klucel (hydroxypropylcellulose) (HPC) 101 % of control | [9] 104 % of control and 95 % of control
